How the values were obtained:
rotavirus = details: pediatric patients; 3 day course; 7.5 mg/kg suspension; cited from earlier work
[1] = test system: rotavirus infection in MA-104 cells; details: cited from earlier work
AGS cells [2] = test: Proliferation assay (ALAMARBLUE) of egg and/or colostrum, Example 8A; format: cell-based, human
Experimental: Cell proliferation assays were performed as previously described, utilising ALAMARBLUETM (Invitrogen, Paisley, UK), (Marchbank et al., Am J Physiol Gastrointest Liver Physiol. 2009; 296:[…]-703) as per manufacturer's instructions. Briefly, cells were seeded at 2000 cells/well, grown in medium and 10% FCS in 96 well plates overnight. The following day, cells were washed with medium alone and incubated in medium alone (negative control), medium containing epidermal growth factor (EGF, 1 μg/ml, positive control) or egg and colostrum combination. BSA was added to additional wells as a further negative control. Data are expressed as % positive control where the rise in proliferation (increase in A570 above baseline) caused by […] of EGF was defined as 100%. Whole powdered egg and colostrum (0.25-4 mg/ml) was added to cells and effect on proliferation and cell migration analysed. Additional studies compared “pure” yolk and egg white powder (1 mg powder/ml) along with separated yolk and white from fresh eggs (added at same protein concentration as equivalent powder) and also compared uncooked egg powder and whole fresh egg that had been heated to 100° C. for 8 minutes (samples placed in 50 ml falcon tube in waterbath, followed by homogenisation) prior to addition to cells. […] This 40:60 proportion was used to reproduce the product currently commercially available and used in trials of infectious diarrhoea. Gaensbauer et al. BMJ Glob Health. 2017; 2:e000452. The importance of the EGFR and TGFβ in mediating proliferative and migratory effects was examined by adding whole egg powder (1 mg/ml, w/v) to cells in the presence and absence of tyrphostin (100 nM) and a TGFβ ([…]) neutralising antibody (antibodies-online.com, Aachen, Germany). Additional samples examined the effect of pure ovomucoid (25-100 μg/ml) and ovalbumin (50-400 μg/ml) on proliferation and migration. To further examine the contribution of ovomucoid and ovalbumin in mediating the proliferative and migratory activity seen using whole egg powder, further wells had egg powder added (1 mg/ml) in the presence of anti-ovomucoid and ovalbumin antibodies (Generon, Slough, Berkshire, UK) at 1 μg/ml.

AGS cells [3] = test: Cell migration assay (wounded monolayers) of egg and/or colostrum, Example 8A; format: cell-based, human; details: purified protein
Experimental: Cell migration assays were performed using our previously published methods. Marchbank et al., Am J Physiol Gastrointest Liver Physiol. 2009; 296:[…]-703. Briefly, confluent monolayers had standard wounds inflicted and serial photomicrographs taken. Twenty measurements per field were performed by placing a transparent grid over the photograph and measuring the distance moved from the original wound line. All results are expressed as mean (SEM) of four separate experiments. Whole powdered egg and colostrum (0.25-4 mg/ml) was added to cells and effect on proliferation and cell migration analysed. Additional studies compared “pure” yolk and egg white powder (1 mg powder/ml) along with separated yolk and white from fresh eggs (added at same protein concentration as equivalent powder) and also compared uncooked egg powder and whole fresh egg that had been heated to 100° C. for 8 minutes (samples placed in 50 ml falcon tube in waterbath, followed by homogenisation) prior to addition to cells. […] This 40:60 proportion was used to reproduce the product currently commercially available and used in trials of infectious diarrhoea. Gaensbauer et al. BMJ Glob Health. 2017; 2:e000452. […]

these cell lines = details: cited from earlier work
RIE cells = test: Cell proliferation assay in RIE cells; format: cell-based, rat; details: vs SFM, standard colostrum or ZnC
Experimental: Human gastrointestinal cells (AGS cells) or rat intestinal epithelial cells (RIE cells) are seeded at 2000 cells/well in an appropriate growth medium containing glutamine and 10% foetal calf serum in 96 well plates overnight. The following day, cells are washed twice with serum-free medium and then incubated in serum-free medium alone (SFM negative control) or also containing colostrum at various concentrations or epidermal growth factor (EGF, positive control) overnight. The following day ALAMARBLUE™ is added to each well. ALAMARBLUE™ is a coloured substrate that changes colour from blue to pink in response to cellular metabolic reduction. This change can be determined by reading the absorbance of the wells at 570 nm using a spectrophotometer at 0 h when the substrate is added and 4 hours later.

CC(=O)Oc1ccccc1C(=O)Nc1ncc([N+](=O)[O-])s1 [Nitazoxanide]
duration of rotavirus disease (rotavirus): effective to reduce the duration of rotavirus disease

O=c1cc(-c2ccc(O)cc2)oc2cc(O[C@@H]3O[C@H](CO)[C@@H](O)[C@H](O)[C@H]3O)cc(O)c12 [apigenin 7-O-glucoside]
antiviral activity against rotavirus infection [1]: antiviral activity

O=c1cc(-c2ccc(O)c(O)c2)oc2cc(O)cc(O)c12 [luteolin]
antiviral activity against rotavirus infection [1]: antiviral activity

ovalbumin: purified ovalbumin, 42 kDa egg white protein
effect on proliferation and migration (AGS cells [2]; pure isolated ovalbumin at 400 µg/mL): major stimulatory effect
cell proliferation dose-response, in words (AGS cells [2]; purified protein, 50-400 μg/ml): increasing activity up to the highest dose
cell migration dose-response, in words (AGS cells [3]; 50-400 μg/ml): increasing activity up to the highest dose

soya bean trypsin inhibitor
proliferation or migration (these cell lines): does not increase proliferation or migration

zinc carnosine
cell proliferation (A570 nm), comparison in words (RIE cells): stimulate cell proliferation

B1: ovomucoid: purified ovomucoid, 28 kDa egg white protein with trypsin inhibitor activity (protein, UniProt P01005 25-210, looked up)
Ovomucoid: AEVDCSRFPNATDKEGKDVLVCNKDLRPICGTDGVTYTNDCLLCAYSIEFGTNISKEHDGECKETVPMNCSSYANTTSEDGKVMVLCNRAFNPVCGTDGVTYDNECLLCAHKVEQGASVDKRHDGGCRKELAAVSVDCSEYPKPDCTAEDRPLCGSDNKTYGNKCNFCNAVVESNGTLTLSHFGKC
share of total proliferative and migratory activity of whole egg (AGS cells [2]; from neutralising antibody studies): about 80%
concentration of peak effect, cell proliferation (AGS cells [2]; purified protein, dose-response 25-100 μg/ml): 50 µg/mL
concentration of peak effect, cell migration (AGS cells [3]; dose-response 25-100 μg/ml): 50 µg/mL
